Results taken from patent US20220192935A1, “COMPOSITION FOR A TOPICAL APPLICATION ON THE SKIN” (Biodermic Health & Beauty GmbH & Co. KG, priority 2019, published 2022).

Test system: organisms of the skin flora (Corynebacterium minutissimum, Streptococcus mitis, Staphylococcus epidermidis, Staphylococcus galinarum, Propionibacterium acnes …)
Experiment: Investigation of single ingredients for influence on the growth of the organisms of the skin flora
Format: cell-based
Conditions: single ingredient, result in words
Description: The surprising positive effect of the above-described substances or substance groups on the growth of the microorganisms of the skin flora has been confirmed by investigations on microorganisms of the skin flora. Specifically, this involved analyzing the growth of the following species: Corynebacterium minutissimum, Streptococcus mitis, Staphylococcus epidermidis, Staphylococcus galinarum, Propionibacterium acnes, and Malassezia furfur, Malassezia sympodialis, Malassezia globosa and Malassezia restricta. The positive effect can be attributed to the fact that the microorganisms present on the skin cannot make use of the substances investigated. […] Investigations on Corynebacterium minutissimum, Streptococcus mitis, Staphylococcus epidermidis, Staphylococcus galinarum, Propionibacterium acnes, and Malassezia furfur, Malassezia sympodialis, Malassezia globosa and Malassezia restricta have confirmed this effect. The positive effect of these emulsifiers in terms of their influence on the growth of organisms of the skin flora has been confirmed by investigations on Corynebacterium minutissimum, Streptococcus mitis, Staphylococcus epidermidis, Staphylococcus galinarum, Propionibacterium acnes, and Malassezia furfur, Malassezia sympodialis, Malassezia globosa and Malassezia restricta. […]

## Caprylic/Capric Triglyceride
  influence on the growth of the organisms of the skin flora: No growth-promoting influence was detected
